{"source": "patent US11123354B2", "about": "“Method for the treatment of osteoarthritis” (ABIOGEN PHARMA S.P.A., priority 2016, dated 2021)", "key": {"[1]": {"assay": "pH, osmolality and density of unitary dosage form aqueous solutions", "assay_type": "physicochemical", "conditions": "aqueous solution", "method": "Osmolality values were determined according to USP, chapter […] under the heading “Osmolality and Osmolarity”.\nCertain compositions of the invention were prepared in unitary dosage form, in the form of an aqueous solution, for weekly, biweekly or monthly administration, comprising sodium chlodronate in tetrahydrate form, whose quali-quantitative compositions and pH, osmolality, and density values, are shown in Table 8 below.\nAs it is apparent from the table, all the compositions prepared had particularly high osmolality values. Osmolalities were determined by GONOTEC Osmometer, OSMOMAT 3000-D model, serial number 3000150264 according to USP, chapter 785 under the title “Osmolality and Osmolarity”."}, "[2]": {"test_system": "OA rats (bilateral anterior cruciate ligament surgical resection)", "assay": "Histomorphometric evaluation of the cartilage area, OA rats by anterior cruciate ligament resection, monthly treatment", "assay_type": "in vivo, Sprague Dawley rats", "conditions": "4 monthly i.a. doses", "method": "(§1) In this study, the efficacy of a treatment performed by monthly intra-articular administration of sodium chlodronate on male “Sprague Dawley” rats affected by OA was evaluated. The treatment involved 4 monthly doses of sodium chlodronate, followed by one month of follow-up.\n(§2) In the experimental model, OA was induced in rats by bilateral anterior cruciate ligament surgical resection in both hind limbs.\n(§3) A volume of 50 μL of treatment solution, having a pH of about 4.5, as measured just before administration, was injected into the intra-articular cavity of each knee.\n(§4) The study included 5 treatment groups, each consisting of 10 male rats, specifically two treatment groups consisting of OA rats, on which chlodronate doses of 8 and 12 mg/ml, corresponding to 0.4 and 0.6 mg/rat, were tested, and remaining three groups represented by untreated OA rats, operated but untreated Sham rats, and rats receiving placebo alone.\n(§5) During the treatment period, the animals were regularly checked in relation to the increase in body mass, food intake and general health conditions. Clinical and hematological analyses were performed at the end of the study. […]\nHistomorphometric quantitative measurements of the cartilage area were performed using Image-Pro Plus 4.1 software for windows (Media Cybernetics, Maryland, USA). […]"}, "[3]": {"test_system": "patients with osteoarthritis of the knee", "conditions": "20 patients, IA 0.9 mg on days 1, 3, 7, 10, 14 and 21; cited from earlier work"}, "[4]": {"test_system": "OA rats (bilateral anterior cruciate ligament surgical resection)", "assay": "Histopathological evaluation (modified Mankin score), OA rats by anterior cruciate ligament resection, monthly treatment", "assay_type": "in vivo, Sprague Dawley rats", "conditions": "4 monthly i.a. doses, scale 0 (normal) to 15 (seriously damaged)", "method": "as §1, §2, §3, §4, §5"}, "[5]": {"test_system": "COMP (Cartilage Oligomeric Matrix Protein)", "assay": "COMP final serum concentration, MIA-induced OA rats, weekly treatment", "assay_type": "in vivo, Sprague Dawley rats", "method": "(§6) As an experimental model of OA induction, one involving the intra-articular administration of MIA (monosodium iodoacetate) was used.\n(§7) The rats were anesthetized by a gaseous mixture of isoflurane and oxygen, and maintained in a supine position. Once the infrapatellar ligament was identified by touch, a single intra-articular injection of monosodium iodoacetate (MIA) was performed in the right knee, after having shaved the skin of the area, while keeping the joint slightly flexed. The amount of MIA injected was equal to 1 mg dissolved in 50 μl of saline solution, having a pH of about 4.5, as measured just before administration. The joint of the left knee was instead injected with 50 μl of saline solution alone, and this represented the internal control.\n(§8) The treatment involved 4 weekly administrations of sodium chlodronate, followed by one week of follow-up.\n(§9) The study included 8 treatment groups, each consisting of 10 male Sprague Dawley rats, specifically five treatment groups consisting of OA rats, on which the chlodronate doses of 2, 10, 20, 30, and 40 mg/ml, corresponding to 0.1, 0.5, 1, 1.5, and 2 mg/rat, were tested, and the remaining three groups represented by untreated OA rats, operated but untreated Sham rats, and rats administered only with placebo at pH 4.5.\nConsidering that the presence of high concentrations of COMP in serum is an indication of the progression of osteoarthritic disease, the measurement of COMP (Cartilage Oligomeric Matrix Protein) final serum concentration is a measure of treatment efficacy.\nIn fact, COMP seems to play a fundamental role in the formation and structure of articular cartilage, as it has a regulatory function in assembling type II collagen fibers and, together with other matrix proteins, stabilizes the network of collagen fibers. During osteoarthritis, a greater amount of this protein was found in the blood, therefore a higher concentration of COMP in the serum corresponds to a more advanced stage of osteoarthritis degeneration."}, "[6]": {"test_system": "CTX-I (C-telopeptide of type I collagen)", "assay": "CTX-I final serum concentration, MIA-induced OA rats, weekly treatment", "assay_type": "in vivo, Sprague Dawley rats", "method": "as §6, §7, §8, §9\nDuring the treatment period, the animals were regularly checked in relation to the increase in body mass, food intake, and general health conditions. Clinical and hematological analyses were performed at the end of the study. The difference between the size of the edema in the two inflamed knees for all the observation groups, the final serum concentration of CTX-I (C-telopeptide of type I collagen), as a marker of bone turnover, and the final serum concentration of CTX-II (C-telopeptide of type II collagen), as a marker of cartilage turnover were investigated.\nConsidering that CTX-I (C-telopeptide of type I collagen) is a bone turnover marker and its concentration levels are proportional to the osteoclastic activity, the measurement of CTX-I final serum concentration value is a measure of the treatment efficacy."}, "[7]": {"conditions": "5.00 mg sodium chlodronate per unitary dosage form (1 ml)"}, "[8]": {"conditions": "10.00 mg sodium chlodronate per unitary dosage form (1 ml)"}, "[9]": {"conditions": "20.00 mg sodium chlodronate per unitary dosage form (1 ml)"}, "[10]": {"conditions": "30.00 mg sodium chlodronate per unitary dosage form (1 ml)"}, "[11]": {"conditions": "40.00 mg sodium chlodronate per unitary dosage form (1 ml)"}}, "data": [{"smiles": "O=P([O-])(O)C(Cl)(Cl)P(=O)([O-])O.[Na+].[Na+]", "note": "[Sodium Chlodronate, sodium chlodronate]", "values": [{"measurement": "Density", "setting": "[1]; [7]", "result": 1.014, "unit": "g/mL"}, {"measurement": "Osmolality (mOsm/Kg)", "setting": "[1]; [7]", "result": 395, "unit": "mOsm/Kg"}, {"measurement": "pH", "setting": "[1]; [7]", "result": 4.6}, {"measurement": "Density", "setting": "[1]; [8]", "result": 1.016, "unit": "g/mL"}, {"measurement": "Osmolality (mOsm/Kg)", "setting": "[1]; [8]", "result": 400, "unit": "mOsm/Kg"}, {"measurement": "pH", "setting": "[1]; [8]", "result": 4.5}, {"measurement": "Density", "setting": "[1]; [9]", "result": 1.021, "unit": "g/mL"}, {"measurement": "Osmolality (mOsm/Kg)", "setting": "[1]; [9]", "result": 388, "unit": "mOsm/Kg"}, {"measurement": "pH", "setting": "[1]; [9]", "result": 4.4}, {"measurement": "Density", "setting": "[1]; [10]", "result": 1.027, "unit": "g/mL"}, {"measurement": "Osmolality (mOsm/Kg)", "setting": "[1]; [10]", "result": 408, "unit": "mOsm/Kg"}, {"measurement": "pH", "setting": "[1]; [10]", "result": 4.4}, {"measurement": "Density", "setting": "[1]; [11]", "result": 1.032, "unit": "g/mL"}, {"measurement": "Osmolality (mOsm/Kg)", "setting": "[1]; [11]", "result": 413, "unit": "mOsm/Kg"}, {"measurement": "pH", "setting": "[1]; [11]", "result": 4.5}, {"measurement": "Cartilage Area Average Value ± SEM", "setting": "[2]; 8 mg/ml (0.4 mg/rat)", "result": "486 ± 157.7"}, {"measurement": "Cartilage Area Average Value ± SEM", "setting": "[2]; 12 mg/ml (0.6 mg/rat)", "result": "435 ± 125.9"}, {"measurement": "effect on pain symptoms (spontaneous pain and pain in movement)", "setting": "[3]", "result": "marked positive effect"}, {"measurement": "Mankin Index Mean Value ± SEM", "setting": "[4]; 8 mg/ml (0.4 mg/rat)", "result": "4.9 ± 0.458"}, {"measurement": "Mankin Index Mean Value ± SEM", "setting": "[4]; 12 mg/ml (0.6 mg/rat)", "result": "2.6 ± 0.618"}, {"measurement": "COMP Value", "setting": "[5]; 2 mg/mL weekly i.a.", "result": 5.46, "unit": "ng/mL"}, {"measurement": "COMP Value", "setting": "[5]; 10 mg/mL weekly i.a.", "result": 5.52, "unit": "ng/mL"}, {"measurement": "COMP Value", "setting": "[5]; 20 mg/mL weekly i.a.", "result": 5.24, "unit": "ng/mL"}, {"measurement": "COMP Value", "setting": "[5]; 30 mg/mL weekly i.a.", "result": 4.9, "unit": "ng/mL"}, {"measurement": "COMP Value", "setting": "[5]; 40 mg/mL weekly i.a.", "result": 3.52, "unit": "ng/mL"}, {"measurement": "CTX-I Value", "setting": "[6]; 2 mg/mL weekly i.a.", "result": 4.77, "unit": "pg/mL"}, {"measurement": "CTX-I Value", "setting": "[6]; 10 mg/mL weekly i.a.", "result": 4.87, "unit": "pg/mL"}, {"measurement": "CTX-I Value", "setting": "[6]; 20 mg/mL weekly i.a.", "result": 4.6, "unit": "pg/mL"}, {"measurement": "CTX-I Value", "setting": "[6]; 30 mg/mL weekly i.a.", "result": 4.36, "unit": "pg/mL"}, {"measurement": "CTX-I Value", "setting": "[6]; 40 mg/mL weekly i.a.", "result": 4.16, "unit": "pg/mL"}]}]}
